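Values below derive from 48-hour exposures of cells grown in 96-well plates, with endpoints linearly interpolated between the two concentrations bracketing the appropriate inhibition level. Abbreviation: GI50, concentration required for 50% inhibition of growth.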 The source made the active and inactive calls. Rule as the data show it: active = GI50 up to about 1.1 µM and inactive = higher.
What was measured:
Test in all cases: growth of human tumour cells (NCI), 48 h
[1] = system: A498
[2] = system: ACHN
[3] = system: BT-549
[4] = system: COLO 205
[5] = system: HCC 2998
[6] = system: HCT-15
[7] = system: HL-60
[8] = system: MDA-N
[9] = system: NCI-H226
[10] = system: RPMI-8226
[11] = system: SF-268
[12] = system: SF-539
[13] = system: SK-MEL-2
[14] = system: SN12C
[15] = system: SNB-75
[16] = system: UACC-257
[17] = system: NCI-H460
[18] = system: TK-10
[19] = system: SR

Compound | GI50 [1] | GI50 [2] | GI50 [3] | GI50 [4] | GI50 [5] | GI50 [6] [µM] | GI50 [7] | GI50 [8] | GI50 [9] | GI50 [10] | GI50 [11] | GI50 [12] | GI50 [13] | GI50 [14] | GI50 [15] | GI50 [16] | GI50 [17] | GI50 [18] | GI50 [19]
COc1ccc(C2C3=C(N=C4SC(C(C)=O)=C(C)N42)c2ccccc2CC3)cc1 (stereo not given) | > 100 µM (inactive) | > 100 µM (inactive) | 81.8 µM (inactive) | > 100 µM (inactive) | 42.4 µM (inactive) | > 100 | 10.1 µM (inactive) | 21.1 µM (inactive) | 18.7 µM (inactive) | 4.91 µM (inactive) | > 100 µM (inactive) | > 100 µM (inactive) | > 100 µM (inactive) | > 100 µM (inactive) | > 100 µM (inactive) | 73.3 µM (inactive) | – | – | –
CC1SC2(CCCCC2)N(NC(=O)CSc2nc3ccc(Cl)cc3c(=O)n2-c2ccccc2)C1=O (stereo not given) | 32.6 µM (inactive) | 29.6 µM (inactive) | 20.2 µM (inactive) | 13.8 µM (inactive) | 20 µM (inactive) | 18.7 | 23.6 µM (inactive) | 18.3 µM (inactive) | – | – | 25.8 µM (inactive) | 17.3 µM (inactive) | 17.3 µM (inactive) | 17.5 µM (inactive) | 20.7 µM (inactive) | 22.8 µM (inactive) | 16.8 µM (inactive) | 47.1 µM (inactive) | –
COc1ccc(N2C(=O)c3cc(C)cnc3S2(=O)=O)cc1 | – | > 100 µM (inactive) | > 100 µM (inactive) | > 100 µM (inactive) | > 100 µM (inactive) | > 100 | > 100 µM (inactive) | > 100 µM (inactive) | > 100 µM (inactive) | > 100 µM (inactive) | > 100 µM (inactive) | – | > 100 µM (inactive) | > 100 µM (inactive) | > 100 µM (inactive) | – | > 100 µM (inactive) | > 100 µM (inactive) | > 100 µM (inactive)
Cn1c(=S)c2nc(SCCN3C(=O)c4ccccc4C3=O)[nH]c2n(C)c1=O | > 100 µM (inactive) | > 100 µM (inactive) | > 100 µM (inactive) | > 100 µM (inactive) | – | > 100 | > 100 µM (inactive) | > 100 µM (inactive) | > 100 µM (inactive) | 25.5 µM (inactive) | > 100 µM (inactive) | > 100 µM (inactive) | > 100 µM (inactive) | > 100 µM (inactive) | > 100 µM (inactive) | > 100 µM (inactive) | 92.7 µM (inactive) | > 100 µM (inactive) | 3.75 µM (inactive)
Cc1cc(S(=O)(=O)Nc2nc(N)n[nH]2)c(S)cc1Cl | > 10 µM (inactive) | > 10 µM (inactive) | > 10 µM (inactive) | > 10 µM (inactive) | > 10 µM (inactive) | > 10 | > 10 µM (inactive) | > 10 µM (inactive) | > 10 µM (inactive) | > 10 µM (inactive) | > 10 µM (inactive) | > 10 µM (inactive) | > 10 µM (inactive) | > 10 µM (inactive) | > 10 µM (inactive) | > 10 µM (inactive) | > 10 µM (inactive) | > 10 µM (inactive) | –
CCCCSC1=N/C(=C\c2ccc(N(C)C)cc2)C(=O)N1 | 13.9 µM (inactive) | 29.8 µM (inactive) | > 100 µM (inactive) | 35.5 µM (inactive) | – | 53.5 | 82.8 µM (inactive) | 33.6 µM (inactive) | 18 µM (inactive) | 16.7 µM (inactive) | 32.8 µM (inactive) | 24.5 µM (inactive) | – | 16.3 µM (inactive) | 35.5 µM (inactive) | 20.4 µM (inactive) | 20.8 µM (inactive) | > 100 µM (inactive) | –
O=C(NCCN(CCNC(=O)c1cccc(O)c1O)CCNC(=O)c1cccc(O)c1O)c1cccc(O)c1O [TRENCAM] | 51.9 µM (inactive) | 4.2 µM (inactive) | 23.2 µM (inactive) | 5.15 µM (inactive) | 3.4 µM (inactive) | 10.4 | 8.02 µM (inactive) | 9.31 µM (inactive) | 14.8 µM (inactive) | – | 2.06 µM (inactive) | 3.85 µM (inactive) | 33.2 µM (inactive) | 8.55 µM (inactive) | 22.2 µM (inactive) | 19.5 µM (inactive) | 4.38 µM (inactive) | > 56.1 µM (inactive) | –
COc1ccc(-c2nc(-c3cnccn3)n(COCCO)n2)cc1 | – | – | > 100 µM (inactive) | > 100 µM (inactive) | > 100 µM (inactive) | > 100 | > 100 µM (inactive) | > 100 µM (inactive) | – | > 100 µM (inactive) | > 100 µM (inactive) | > 100 µM (inactive) | – | > 100 µM (inactive) | – | > 100 µM (inactive) | > 100 µM (inactive) | > 100 µM (inactive) | > 100 µM (inactive)
Cc1ccc(C(=O)OCC(C)C)cc1/N=N/N(C)C | – | 54.8 µM (inactive) | 79.6 µM (inactive) | > 100 µM (inactive) | > 100 µM (inactive) | 48.1 | 34.2 µM (inactive) | > 100 µM (inactive) | > 100 µM (inactive) | 77.6 µM (inactive) | 42.9 µM (inactive) | > 86.7 µM (inactive) | > 100 µM (inactive) | > 65 µM (inactive) | – | 26 µM (inactive) | > 100 µM (inactive) | > 100 µM (inactive) | 70.5 µM (inactive)
Cc1ccc2c(C(=O)c3c(C)n(CCN4CCOCC4)c4ccccc34)cccc2c1 | 28.6 µM (inactive) | 28.6 µM (inactive) | 14 µM (inactive) | – | – | 9.35 | 2.57 µM (inactive) | 4.06 µM (inactive) | < 0.01 µM (active) | 0.0592 µM (active) | 11.7 µM (inactive) | 0.156 µM (active) | 17.4 µM (inactive) | 31.3 µM (inactive) | – | 16.3 µM (inactive) | 21.1 µM (inactive) | 23.7 µM (inactive) | 6.43 µM (inactive)
O=C(ON=c1c2ccccc2ccc2ccccc12)c1cc([N+](=O)[O-])cc([N+](=O)[O-])c1 | – | 45.4 µM (inactive) | 54.8 µM (inactive) | > 100 µM (inactive) | 75.2 µM (inactive) | 53 | 28 µM (inactive) | 83.8 µM (inactive) | > 100 µM (inactive) | 48.5 µM (inactive) | > 100 µM (inactive) | > 100 µM (inactive) | > 100 µM (inactive) | 67.1 µM (inactive) | 40.8 µM (inactive) | > 100 µM (inactive) | > 100 µM (inactive) | > 100 µM (inactive) | 35.2 µM (inactive)
CC/C(=N\NC(=O)c1cccnc1)c1ccc2c(c1)OCCO2 | > 100 µM (inactive) | > 100 µM (inactive) | > 100 µM (inactive) | > 100 µM (inactive) | – | > 100 | > 100 µM (inactive) | 30.9 µM (inactive) | > 100 µM (inactive) | > 100 µM (inactive) | > 100 µM (inactive) | > 100 µM (inactive) | > 100 µM (inactive) | > 100 µM (inactive) | > 100 µM (inactive) | – | > 100 µM (inactive) | > 100 µM (inactive) | –
COC(=O)/C=C\C(C#N)(C#N)/N=C/c1ccc(Br)s1 | 17.7 µM (inactive) | 2.29 µM (inactive) | 4.79 µM (inactive) | 2.31 µM (inactive) | 19.1 µM (inactive) | 2.18 | 1.85 µM (inactive) | 7.98 µM (inactive) | 3.18 µM (inactive) | 2.32 µM (inactive) | 18.5 µM (inactive) | – | 17.3 µM (inactive) | 15.2 µM (inactive) | 15.2 µM (inactive) | 15.1 µM (inactive) | 20.8 µM (inactive) | 2.38 µM (inactive) | –
COC(=O)c1cccc2c1Oc1ccccc1S2 | 85.3 µM (inactive) | 61.2 µM (inactive) | 60.3 µM (inactive) | 19.6 µM (inactive) | – | 46.1 | 8.18 µM (inactive) | > 100 µM (inactive) | 37.4 µM (inactive) | 61.1 µM (inactive) | 38.8 µM (inactive) | 55.1 µM (inactive) | > 100 µM (inactive) | 56.6 µM (inactive) | 24.1 µM (inactive) | > 100 µM (inactive) | 44.3 µM (inactive) | > 100 µM (inactive) | > 100 µM (inactive)
C[C@@H](C(=O)O)N1C(c2ccco2)=C(/C(C=O)=C\c2ccco2)C(=O)/C1=C\c1ccco1 | > 100 µM (inactive) | > 100 µM (inactive) | > 100 µM (inactive) | > 100 µM (inactive) | – | > 100 | > 100 µM (inactive) | > 100 µM (inactive) | – | > 100 µM (inactive) | > 100 µM (inactive) | > 100 µM (inactive) | > 100 µM (inactive) | > 100 µM (inactive) | – | > 100 µM (inactive) | – | > 100 µM (inactive) | –
C=CC(C)(C)/C=C/c1ccc(O)cc1 | 28.3 µM (inactive) | 28.9 µM (inactive) | 36.5 µM (inactive) | 35.5 µM (inactive) | 27.9 µM (inactive) | 39.1 | 37.6 µM (inactive) | 35 µM (inactive) | – | 27.5 µM (inactive) | 33.9 µM (inactive) | 30.1 µM (inactive) | 23.4 µM (inactive) | 34.5 µM (inactive) | – | 24 µM (inactive) | 19.8 µM (inactive) | 36.1 µM (inactive) | –
c1ccc2c(c1)Nc1nc3nonc3nc1N2 | > 100 µM (inactive) | > 100 µM (inactive) | > 100 µM (inactive) | > 100 µM (inactive) | > 100 µM (inactive) | 29.4 | > 100 µM (inactive) | > 100 µM (inactive) | > 100 µM (inactive) | > 100 µM (inactive) | > 100 µM (inactive) | – | > 100 µM (inactive) | > 100 µM (inactive) | – | > 100 µM (inactive) | > 100 µM (inactive) | > 100 µM (inactive) | > 100 µM (inactive)
